Literature values, collected in patent publication US20240189234A1, “SILICON PARTICLES FOR DRUG DELIVERY” (NACAMED AS, priority 2021, published 2024).

Conditions: calculated log P values from Foye's Principles of Medicinal Chemistry

Point of comparison: `CNC1(c2ccccc2Cl)CCCCC1=O` (stereo not shown) [ketamine], “log P” value 3.01. Against it:
- CN1CCC(OC(c2ccccc2)c2ccccc2)CC1 [diphenylpyraline] — higher, 3.43
- CN(C)CCCN1c2ccccc2Sc2ccccc21 [promazine] — higher, 4.69
- CN(C)CCN1C(=O)c2ccccc2N(C)c2ccccc21 [dibenzepin] — higher, 3.26
- c1ccc(C2(N3CCCCC3)CCCCC2)cc1 [phencyclidine] — higher, 4.25
- iodoquinol — higher, 4.10
- CC[C@]1(O)C[C@@H]2CN(CCc3c([nH]c4ccccc34)[C@@](C(=O)OC)(c3cc4c(cc3OC)N(C)[C@H]3[C@@](O)(C(=O)OC)[C@H](OC(C)=O)[C@]5(CC)C=CCN6CC[C@]43[C@@H]65)C2)C1 [vinblastine] — higher, 5.92
- CCN(CC)CCN1c2ccccc2Sc2ccccc21 [diethazine] — higher, 5.55
- CC(=O)Oc1cc2c(s1)CCN(C(C(=O)C1CC1)c1ccccc1F)C2 (stereo not shown) [prasugel] — higher, 4.31
- CO[C@H]1C[C@H](O[C@H]2[C@H](C)[C@@H](O[C@@H]3O[C@H](C)C[C@H](N(C)C)[C@H]3OC(C)=O)[C@@H](C)C[C@@]3(CO3)C(=O)[C@H](C)[C@@H](OC(C)=O)[C@@H](C)[C@@H](C)OC(=O)[C@@H]2C)O[C@@H](C)[C@@H]1OC(C)=O [troleandomycin] — higher, 3.46
- CCCCCCC(C)(C)c1cc(O)c2c(c1)OC(C)(C)C1CCC(=O)CC21 (stereo not shown) [nabilone] — higher, 7.25
- CC(CNC1CCCCC1)OC(=O)c1ccccc1 (stereo not shown) [hexylcaine] — higher, 3.65
- O=C(Oc1ccccc1C(=O)O)c1ccccc1O [salsalate] — higher, 3.29
- CN(C)C/C=C(/c1ccc(Br)cc1)c1cccnc1 [zimeldine] — within 0.2 log units, 3.07
- COc1ccccc1Oc1c(NS(=O)(=O)c2ccc(C(C)(C)C)cc2)nc(-c2ncccn2)nc1OCCO [bosentan] — higher, 4.36
- CCCCCc1cc(O)c2c(c1)OC(C)(C)[C@@H]1CCC(C)=C[C@@H]21 [tetrahydrocannabinol] — higher, 6.84
- CCOC(=O)C(C)(C)Oc1ccc(Cl)cc1 [clofibrate] — higher, 3.88
- CCCCNc1ccc(C(=O)OCCN(C)C)cc1 [tetracaine] — higher, 3.75
- CCc1cc2c(cc1CC)CC(NC[C@H](O)c1ccc(O)c3[nH]c(=O)ccc13)C2 [indacaterol] — higher, 3.88
- O=C(CCCN1CCC2(CC1)C(=O)NCN2c1ccccc1)c1ccc(F)cc1 [spiperone] — higher, 3.25
- C[C@H]1[C@H]2Cc3ccc(O)cc3[C@]1(C)CCN2CC1CC1 [cyclazocine] — higher, 3.52
- CCN(CC)CCOC(=O)C1(C2CCCCC2)CCCCC1 [dicyclomine] — higher, 4.64
- Clc1ccccc1C(c1ccccc1)(c1ccccc1)n1ccnc1 [clotrimazole] — higher, 4.92
- c1ccc2c(c1)Sc1ccccc1N2CCN1CCCC1 [pyrathiazine] — higher, 4.15
- CN(C)CCCN1c2ccccc2Sc2ccc(Cl)cc21 [chlorpromazine] — higher, 5.35
- CCCCC1=NC2(CCCC2)C(=O)N1Cc1ccc(-c2ccccc2-c2nnn[nH]2)cc1 [irbesartan] — higher, 5.25
- CN1C[C@H](C(=O)N[C@]2(C)O[C@@]3(O)[C@@H]4CCCN4C(=O)[C@H](Cc4ccccc4)N3C2=O)C[C@@H]2c3cccc4[nH]cc(c34)C[C@H]21 [dihydroergotamine] — higher, 5.69
- CCCN1C[C@H](CSC)C[C@@H]2c3cccc4[nH]cc(c34)C[C@H]21 [pergolide] — higher, 3.90
- Cc1ccc(C(=O)Oc2ccc(C(O)CNC(C)(C)C)cc2OC(=O)c2ccc(C)cc2)cc1 (stereo not shown) [bitolterol] — higher, 4.16
- CSc1ccc2c(c1)N(CCC1CCCCN1C)c1ccccc1S2 (stereo not shown) [thioridazine] — higher, 5.90
- O=C(CCCN1CCC(O)(c2ccc(Cl)cc2)CC1)c1ccc(F)cc1 [haloperidol] — higher, 3.76
- CCCCOc1cc(C(=O)NCCN(CC)CC)c2ccccc2n1 [dibucaine] — higher, 4.40
- COC(=O)[C@H]1[C@H]2C[C@@H]3c4[nH]c5cc(OC)ccc5c4CCN3C[C@H]2C[C@@H](OC(=O)c2cc(OC)c(OC)c(OC)c2)[C@@H]1OC [reserpine] — higher, 3.65
- Cc1ccc(/C(=C\CN2CCCC2)c2ccccn2)cc1 [triprolidine] — higher, 3.25
- C=C[C@H]1C[N@@]2CC[C@H]1C[C@@H]2[C@@H](O)c1ccnc2ccccc12 [cinchonine] — higher, 3.69
- CN1CCN(CCCN2c3ccccc3Sc3ccc(C(F)(F)F)cc32)CC1 [trifluoperazine] — higher, 4.62
- CCNC(C)Cc1cccc(C(F)(F)F)c1 (stereo not shown) [fenfluramine] — higher, 3.55
- CN1C[C@H](C(=O)N[C@]2(C)O[C@@]3(O)[C@@H]4CCCN4C(=O)[C@H](Cc4ccccc4)N3C2=O)C=C2c3cccc4[nH]cc(c34)C[C@H]21 [ergotamine] — higher, 7.37
- CC(C)(C)NC[C@H](O)COc1ccccc1C1CCCC1 [penbutolol] — higher, 4.02
- CCN(CC)C(=O)/C(C#N)=C/c1cc(O)c(O)c([N+](=O)[O-])c1 [entacapone] — within 0.2 log units, 3.02
- Cc1ccc(O)c([C@H](CCN(C(C)C)C(C)C)c2ccccc2)c1 [tolterodine] — higher, 5.23
- C1CCC(C(CC2CCCCN2)C2CCCCC2)CC1 (stereo not shown) [perhexilene] — higher, 6.46
- COc1ccc(Cl)cc1C(=O)NCCc1ccc(S(=O)(=O)NC(=O)NC2CCCCC2)cc1 [glibenclamide] — within 0.2 log units, 3.08
- COc1ccc(-c2nc(C(F)(F)F)[nH]c2-c2ccc(OC)cc2)cc1 [flumizole] — higher, 4.26
- CN(C)CCC=C1c2ccccc2C=Cc2ccccc21 [cyclobenzaprine] — higher, 6.19
- CN(C)CCCN1c2ccccc2Sc2ccc(C(F)(F)F)cc21 [triflupromazine] — higher, 5.16
- CCN(CC)CCCC(C)Nc1c2ccc(Cl)cc2nc2ccc(OC)cc12 (stereo not shown) [quinacrine] — higher, 5.59
- COc1ccc2c(c1)[C@]13CCCC[C@@H]1[C@H](C2)N(C)CC3 [dextromethorphan] — higher, 3.89
- CC(C)=CCN1CCC2(C)c3cc(O)ccc3CC1C2C (stereo not shown) [pentazocine] — higher, 4.15
- Cc1ccc(Cl)c(Nc2ccccc2C(=O)O)c1Cl [meclofenamic acid] — higher, 5.44
- CCCCc1nc(Cl)c(CO)n1Cc1ccc(-c2ccccc2-c2nn[nH]n2)cc1 [losartan] — higher, 3.46
- CN(C)CC/C=C1/c2ccccc2Sc2ccc(Cl)cc21 [chlorprothixene] — higher, 5.31
- CC(CN1c2ccccc2Sc2ccccc21)N(C)C (stereo not shown) [promethazine] — higher, 4.89
- C[C@]12CC[C@@H]3c4ccc(O)cc4CC[C@H]3[C@@H]1CCC2=O [estrone] — higher, 3.62
- Cc1onc(-c2c(Cl)cccc2Cl)c1C(=O)N[C@@H]1C(=O)N2[C@@H]1SC(C)(C)[C@@H]2C(=O)O [dicloxacillin] — within 0.2 log units, 3.10
